This passage reports IC50 results from patent US9656971B2, “COMT inhibitors” (Hoffmann-La Roche Inc., priority 2012, dated 2017).

The target in this test is T1, Rec. human COMT (Homo sapiens, UniProt P21964).
T1 sequence (P21964 1-271): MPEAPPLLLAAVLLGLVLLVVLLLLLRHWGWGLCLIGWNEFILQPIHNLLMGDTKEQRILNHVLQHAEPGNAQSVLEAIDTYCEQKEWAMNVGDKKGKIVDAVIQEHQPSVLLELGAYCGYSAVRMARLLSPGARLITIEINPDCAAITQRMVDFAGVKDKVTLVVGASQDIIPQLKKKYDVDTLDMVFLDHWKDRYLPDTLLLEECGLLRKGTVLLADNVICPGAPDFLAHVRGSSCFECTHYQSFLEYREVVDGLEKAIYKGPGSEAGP
Put plainly: COMT-Fluorescence Assay. In kind it is biochemical. Particulars: rec. human COMT 25 nM, 4-Nitrocatechol-Alexa488 200 nM, SAM 500 nM. The procedure: This intramolecular interaction is disturbed if the 4-Nitrocatechol is methylated. […] This increase of fluorescence intensity can be followed in a kinetic measurement. The slope in the linear range of the kinetic is calculated. An inhibitor compound decreases the slope.
Signal [rfu/min]=(rfu(end-point)−rfu(startpoint))/incubation_time_#2

Where [1] appears, read: COMT-fluorescence assay, read-out: IC50.

SMILES strings stand for the structures. Where two headings read alike, the source gives them in different places.

What is called IC50 is the concentration at which inhibition is half-maximal. With `COC(=O)c1cc(C)c(-c2cc(O)c3nc[nH]c(=O)c3c2)s1` [Example 81, Methyl 5-(8-hydroxy-4-oxo-3,4-dihydroquinazolin-6-yl)-4-methylthiophene-2-carboxylate], the IC50 under setting [1] stood at 10 nM.

`CN(C)c1ccc(/N=N/c2ccccc2)c(-c2cc(O)c3nc[nH]c(=O)c3c2)c1` [Example 29, (E)-6-(5-(Dimethylamino)-2-(phenyldiazenyl)phenyl)-8-hydroxyquinazolin-4(3H)-one]: the IC50 under setting [1] was 2800 nM.

Turning to `Cc1cc(-c2cc(O)c3nc[nH]c(=O)c3c2)ccn1` [Example 134, 8-Hydroxy-6-(2-methylpyridin-4-yl)quinazolin-4(3H)-one], under setting [1], the half-maximal inhibitory concentration (IC50) is 10 nM.

As to `O=C(NCCN1CCOCC1)c1ccc(-c2cc(O)c3nc[nH]c(=O)c3c2)cc1` [Example 172, 4-(8-Hydroxy-4-oxo-3,4-dihydroquinazolin-6-yl)-N-(2-morpholinoethyl)benzamide], the IC50 under setting [1] came out at 20 nM.

`O=c1[nH]cnc2c(O)cc(-c3ccccc3COCCN3CCOCC3)cc12` [Example 236, 8-Hydroxy-6-[2-(2-morpholin-4-yl-ethoxymethyl)-phenyl]-3H-quinazolin-4-one]: the IC50 under setting [1] stood at 20 nM.

Regarding `O=c1[nH]cnc2c(O)cc(-c3ccc(F)cc3)c(-c3cccc(C(F)(F)F)c3)c12` [Example 53, 6-(4-Fluorophenyl)-8-hydroxy-5-(3-(trifluoromethyl)phenyl)quinazolin-4(3H)-one], the concentration for half-maximal inhibition (IC50) under setting [1] came out at 20 nM.

For the compound `O=c1[nH]cnc2c(O)cc(-c3ccccc3N3CCOCC3)cc12` [Example 224, 8-Hydroxy-6-(2-morpholinophenyl)quinazolin-4(3H)-one], under “IC50, COMT-fluorescence assay”, inhibition was half-maximal at 220 nM (IC50).

Take `Cc1cn(C)c(-c2cc(O)c3nc[nH]c(=O)c3c2)n1` [Example 188, 6-(1,4-Dimethyl-1H-imidazol-2-yl)-8-hydroxyquinazolin-4(3H)-one]: the IC50 under setting [1] amounted to 1270 nM.

In the case of `CCCS(=O)(=O)c1ccccc1-c1cc(O)c2nc[nH]c(=O)c2c1` [Example 249, 8-Hydroxy-6-(2-(propylsulfonyl)phenyl)quinazolin-4(3H)-one], the IC50 under setting [1] was found to be 3230 nM.

For the compound `O=c1[nH]cnc2c(O)ccc(C(F)(F)F)c12` [Example 42, 8-Hydroxy-5-(trifluoromethyl)quinazolin-4(3H)-one], under setting [1], the concentration for half-maximal inhibition (IC50) was determined as 1030 nM.

Regarding `Cc1cnc(-c2cc(O)c3nc[nH]c(=O)c3c2)s1` [Example 72, 8-Hydroxy-6-(5-methylthiazol-2-yl)quinazolin-4(3H)-one], the IC50 under setting [1] was 30 nM.

For `Cc1c(Br)cc2c(=O)[nH]cnc2c1O` [Example 136, 6-Bromo-8-hydroxy-7-methylquinazolin-4(3H)-one], the IC50 under setting [1] is 3210 nM.

Turning to `Cc1nnc(-c2cc(O)c3nc[nH]c(=O)c3c2)s1` [Example 83, 8-Hydroxy-6-(5-methyl-1,3,4-thiadiazol-2-yl)quinazolin-4(3H)-one], the 50% inhibitory concentration (IC50) under setting [1] was 60 nM.

As for `O=c1[nH]cnc2c(O)cc(-c3ccc(F)c(F)c3F)cc12` [Example 31, 8-Hydroxy-6-(2,3,4-trifluoro-phenyl)-3H-quinazolin-4-one], the IC50 under setting [1] amounted to 20 nM.

As to `O=C(Nc1c(-c2ccc(F)cc2)cc(O)c2nc[nH]c(=O)c12)c1ccccc1` [Example 254, N-(6-(4-Fluorophenyl)-8-hydroxy-4-oxo-3,4-dihydroquinazolin-5-yl)benzamide], the IC50 under setting [1] stood at 1400 nM.

For the setting “IC50, COMT-fluorescence assay”, `CN1CC=C(c2c(-c3ccc(F)cc3)cc(O)c3nc[nH]c(=O)c23)CC1` [Example 61, 6-(4-Fluorophenyl)-8-hydroxy-5-(1-methyl-1,2,3,6-tetrahydropyridin-4-yl)quinazolin-4(3H)-one] gave an IC50 of 130 nM.

Consider `O=c1[nH]cnc2c(O)c(F)c(-c3ccc(F)cc3)c(-c3ccc(F)cc3)c12` [Example 123, 7-Fluoro-5,6-bis(4-fluorophenyl)-8-hydroxyquinazolin-4(3H)-one], for which the half-inhibitory concentration (IC50) under setting [1] worked out at 10 nM.

`O=c1[nH]cnc2c(O)cc(-c3c(F)c(F)c(F)c(F)c3F)cc12` [Example 33, 8-Hydroxy-6-(perfluorophenyl)quinazolin-4(3H)-one]: inhibition (IC50, COMT-fluorescence assay) was half-maximal at 20 nM (IC50).

As to `Cc1nc(-c2cc(O)c3nc[nH]c(=O)c3c2)cs1` [Example 85, 8-Hydroxy-6-(2-methylthiazol-4-yl)quinazolin-4(3H)-one], under setting [1], the IC50 was 170 nM.

Consider `Cc1n[nH]cc1-c1cc(O)c2nc[nH]c(=O)c2c1` [Example 205, 8-Hydroxy-6-(3-methyl-1H-pyrazol-4-yl)quinazolin-4(3H)-one], for which, under setting [1], the IC50 was found to be 170 nM.

For the compound `O=c1[nH]cnc2c(O)cc(Cc3ccccc3F)cc12` [Example 11, 6-(2-Fluorobenzyl)-8-hydroxyquinazolin-4(3H)-one], the IC50 under setting [1] was 1250 nM.

Take `Cc1onc(-c2ccccc2)c1-c1cc(O)c2nc[nH]c(=O)c2c1` [Example 76, 8-Hydroxy-6-(5-methyl-3-phenylisoxazol-4-yl)quinazolin-4(3H)-one]: the IC50 under setting [1] stood at 4600 nM.

Regarding `O=c1[nH]cnc2c(O)cc(C3CCc4ccccc4C3)cc12` (racemic) [Example 8, (rac.) 8-Hydroxy-6-(1,2,3,4-tetrahydronaphthalen-2-yl)quinazolin-4(3H)-one], under setting [1], the IC50 was found to be 100 nM.

As to `O=c1[nH]cnc2c(O)cc(-c3cc(F)c(F)c(F)c3)cc12` [Example 28, 8-Hydroxy-6-(3,4,5-trifluorophenyl)quinazolin-4(3H)-one], inhibition (IC50, COMT-fluorescence assay) was half-maximal at 40 nM (IC50).

Regarding `CN(C)c1ccc(-c2cc(O)c3nc[nH]c(=O)c3c2)cc1` [Example 147, 6-(4-Dimethylamino-phenyl)-8-hydroxy-3H-quinazolin-4-one], under setting [1], the IC50 is 20 nM.

For `O=c1[nH]cnc2c(O)cc(-c3ccc(F)cc3)c(F)c12` [Example 195, 5-Fluoro-6-(4-fluorophenyl)-8-hydroxyquinazolin-4(3H)-one], under setting [1], the IC50 turned out to be 10 nM.

Take `O=c1[nH]cnc2c(O)cc(-c3cccc4cccnc34)cc12` [Example 167, 8-Hydroxy-6-(quinolin-8-yl)quinazolin-4(3H)-one]: the IC50 under setting [1] is 260 nM.

`CN(C)CCCc1ccccc1-c1cc(O)c2nc[nH]c(=O)c2c1` [Example 243, 6-(2-(3-(Dimethylamino)propyl)phenyl)-8-hydroxyquinazolin-4(3H)-one]: under setting [1], the IC50 turned out to be 130 nM.

For `CSCc1ccccc1-c1cc(O)c2nc[nH]c(=O)c2c1` [Example 114], the IC50 under setting [1] was found to be 40 nM.

`O=c1[nH]cnc2c(O)cc(-c3cnsc3)cc12` [Example 92, 8-Hydroxy-6-(isothiazol-4-yl)quinazolin-4(3H)-one]: the 50% inhibitory concentration (IC50) under setting [1] amounted to 60 nM.

As to `O=c1[nH]cnc2c(O)cc(/C=C/c3ccccc3)cc12` [Example 20, (E)-8-Hydroxy-6-styrylquinazolin-4(3H)-one], the IC50 under setting [1] turned out to be 90 nM.

`O=c1[nH]cnc2c(O)cc(-c3cccnc3OCC(F)(F)F)cc12` [Example 216, 8-Hydroxy-6-(2-(2,2,2-trifluoroethoxy)pyridin-3-yl)quinazolin-4(3H)-one]: the IC50 under setting [1] was determined as 40 nM.

For `CN(C)c1cccc(-c2cc(O)c3nc[nH]c(=O)c3c2)n1` [Example 183, 6-(6-(Dimethylamino)pyridin-2-yl)-8-hydroxyquinazolin-4(3H)-one], under setting [1], the IC50 is 70 nM.

`O=C(NCC(F)(F)F)c1cc(O)c2nc[nH]c(=O)c2c1` [Example 5, 8-Hydroxy-4-oxo-N-(2,2,2-trifluoroethyl)-3,4-dihydroquinazoline-6-carboxamide]: the IC50 under setting [1] was 660 nM.

With `O=c1[nH]cnc2c(O)cc(-c3ccnc(N4CCNCC4)c3)cc12` [Example 185, 8-Hydroxy-6-(2-(piperazin-1-yl)pyridin-4-yl)quinazolin-4(3H)-one], under setting [1], the IC50 is 20 nM.

For the setting “IC50, COMT-fluorescence assay”, `O=c1[nH]cnc2c(O)cc(-c3cc(Cl)ccc3Cl)cc12` [Example 37, 6-(2,5-Dichlorophenyl)-8-hydroxyquinazolin-4(3H)-one] had an IC50 of 30 nM.

`O=c1[nH]cnc2c(O)cc(-c3ccccc3)cc12` [Example 128, 8-Hydroxy-6-phenylquinazolin-4(3H)-one]: the IC50 under setting [1] was determined as 20 nM.

Take `O=C(c1ccccc1-c1cc(O)c2nc[nH]c(=O)c2c1)N1CCS(=O)(=O)CC1` [Example 194, 6-[2-(1,1-Dioxo-1λ^6-thiomorpholine-4-carbonyl)-phenyl]-8-hydroxy-3H-quinazolin-4-one]: the IC50 under setting [1] is 730 nM.

`Cc1ccc(/C=C/c2cc(O)c3nc[nH]c(=O)c3c2)cc1` [Example 21, (E)-8-Hydroxy-6-(4-methylstyryl)quinazolin-4(3H)-one]: the IC50 under setting [1] amounted to 100 nM.

For the compound `O=c1[nH]cnc2c(O)cc(-c3ccccc3Oc3ccccc3)cc12` [Example 222, 8-Hydroxy-6-(2-phenoxyphenyl)quinazolin-4(3H)-one], under setting [1], the IC50 was found to be 60 nM.

On to `O=c1[nH]cnc2c(O)cc(-c3cccc(N4CCOCC4)n3)cc12` [Example 62, 8-Hydroxy-6-(6-morpholinopyridin-2-yl)quinazolin-4(3H)-one], for which the IC50 under setting [1] stood at 10 nM.

As for `Cn1cc(-c2cc(O)c3nc[nH]c(=O)c3c2)c(C(F)(F)F)n1` [Example 82, 8-Hydroxy-6-(1-methyl-3-(trifluoromethyl)-1H-pyrazol-4-yl)quinazolin-4(3H)-one], under setting [1], the IC50 amounted to 40 nM.

Regarding `O=c1[nH]cnc2c(O)cc(Br)c(Cl)c12` [Example 117, 6-Bromo-5-chloro-8-hydroxyquinazolin-4(3H)-one], the half-inhibitory concentration (IC50) under setting [1] is 40 nM.

`O=c1[nH]cnc2c(O)cc(C3=CCCCC3)cc12` [Example 186, 6-Cyclohexenyl-8-hydroxyquinazolin-4(3H)-one]: under setting [1], the IC50 amounted to 30 nM.
